Read-outs that look alike come from different tables or passages of the source.
Legend:
[1] = test system: Gastric Acid Secretion Induced by Histamine; assay: Inhibition effect on gastric acid secretion induced by histamine in pylorus ligated rat (subcutaneous); format: in vivo, male Wistar rat
Experimental: (§1) A male Wistar rat having a body weight of about 160 g and which had not fed for 24 hours was anesthetized by an intraperitoneal dose of 1.2 g/kg of urethane. After ligating of pylorus and esophagus, the gaster anterior was incised and fitting with a double polyethylene cannula. The wall of the stomach was rinsed with 5 ml of saline at 30 minutes intervals, and the quantity of gastric acid contained in each rinsing solution was measured by titration.
The basal acid secretion was initially measured three times, and then 0.2 mg/kg of each of the compounds of this invention was administered subcutaneously and 3 mg/kg of histamine was administered subcutaneously after the lapse of an additional 30 minutes.
(§2) The quantity of gastric acid secreted after the operation was measured continuously for 3 hours. Within that measurement interval, three time points at which the increase in acid secretion reached a maximum level were selected, and the average quantity of gastric acid secreted at those time points was taken as the increase in acid secretion, which was compared with the increase in acid secretion of the control group to calculate the percent inhibition for secretion of gastric acid (Table 1). [formula] (The result was shown as the average value of five runs.)

[2] = test system: Gastric Acid Secretion Induced by Histamine; assay: Inhibitory effect of intraduodenally administered compounds on gastric acid secretion induced by histamine in rat; format: in vivo, male Wistar rat; details: for ED50: Rattus norvegicus; for Efficacy Ratio relative to Cimetidine (Cimetidine = 1): rat, in vivo
Experimental: The test was conducted by an improved method based on that reported by Watanabe et al., in "Pharmacometrics", Vol. 3, No. (1), pages 7 to 14 (1969).
as §1, §2

Histamine H2 -Receptor = target: T1, Histamine H2 -Receptor (Cavia porcellus, UniProt P47747); assay: biochemical; design: species or system male Hartley guinea pig; details: for Kb: negative logarithm of molar concentration, isolated guinea pig atrium, read-out: Antagonistic Action against Histamine H2 -Receptor (pA2) Determined by Using Atrium isolated from Guinea Pig (converted)
T1 construct: from tissue; host or cells: isolated right atrium of male Hartley guinea pig
T1 sequence (P47747 whole entry): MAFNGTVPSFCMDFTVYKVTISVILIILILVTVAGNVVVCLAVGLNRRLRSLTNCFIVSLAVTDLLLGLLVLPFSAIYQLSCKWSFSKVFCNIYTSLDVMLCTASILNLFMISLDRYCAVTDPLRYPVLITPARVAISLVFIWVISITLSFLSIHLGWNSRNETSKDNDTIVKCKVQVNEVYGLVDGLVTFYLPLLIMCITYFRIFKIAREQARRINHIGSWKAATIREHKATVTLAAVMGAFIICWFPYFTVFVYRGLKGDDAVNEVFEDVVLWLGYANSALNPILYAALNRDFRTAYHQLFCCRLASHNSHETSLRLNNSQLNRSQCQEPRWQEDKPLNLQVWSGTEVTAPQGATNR
Experimental: A male Hartley guinea pig having a body weight of about 400 g was killed by cervical dislocation, and the atrium thereof was isolated and was suspended in an organ bath containing […] of a modified Ringer solution and subjected to a tension of 1 g. The number of heart beats under such condition was recorded using a polygraph.
Initially, from 1×10^-7 mol to 3×10^-4 mol of histamine was allowed to act accumulatively to depict the curve of the dosage-reaction relationship. Likewise, the curve of the dosage of histamine-reaction relationship was depicted in the presence of 5×10^-7 mol to 1×10^-6 mol of the test sample which was injected 3 minutes before. The negative logarithm (pA2) of the molar concentration of the test sample required for moving the curve obtained by single administration of histamine parallel to the right side by a two-times concentration was calculated.

[3] = Rattus norvegicus, 0.2 mg/kg SC, histamine 3 mg/kg SC, average of five runs, read-out: Secretion of Gastric Acid in Rat, Inhibition Rate (%)
[4] = intraduodenal, 30 minutes before histamine SC, first series (Table 2-1), read-out: Median effective dose (ED50) inhibiting Gastric Acid Section (95% Reliability Limit)

Compound	Kb (Histamine H2 -Receptor)	inhibition in vivo at 0.2 mg/kg [1, 3]	ED50 [2, 4]	Efficacy Ratio relative to Cimetidine (Cimetidine = 1) [2]	also measured
5-dimethylaminomethylbenzyl-2-[4-<6-(1-pipelidinomethyl)pyridyl-2-oxy>-cis-2-butenylamino]-1H-pyrimidin-4-one [Ex. 45]					Secretion of Gastric Acid in Rat, Inhibition Rate (%) ([1]; 0.2 mg/kg SC, histamine 3 mg/kg SC, average of five runs): 36%
CN/C(=N/CCSCc1nc[nH]c1C)NC#N [Cimetidine, reference compound]					ED50 ([2]; read-out: Median effective dose (ED50) inhibiting Gastric Acid Section (95% Reliability Limit), intraduodenal, 30 minutes before histamine SC, first series (Table 2-1)): 7 mg/kg; ED50 ([2]; read-out: Median effective dose (ED50) inhibiting Gastric Acid Section (95% Reliability Limit), intraduodenal, 30 minutes before histamine SC, second series (Table 2-2)): 8.2 mg/kg; inhibition in vivo at 2 mg/kg ([1]; Rattus norvegicus, sc, read-out: Secretion of Gastric Acid in Rat, Inhibition Rate (%)): 72%
CN(C)Cc1ccnc(OC/C=C\CNc2c(N)c(=O)c2=O)c1 [Ex. 3, 1-amino-2-<4-(4-dimethylaminomethylpyridyl-2-oxy)-cis-2-butenylamino>-1-cyclobuten-3,4-dione]	468 nM	52%			
CNc1c(NC/C=C\COc2cc(CN(C)C)ccn2)c(=O)c1=O [Ex. 4, 1-methylamino-2-<4-(4-dimethylaminomethylpyridyl-2-oxy)-cis-2-butenylamino>-1-cyclobuten-3,4-dione]			0.11 mg/kg	63.6	
Nc1n[s+]([O-])nc1NC/C=C\COc1cc(CN2CCCCC2)ccn1 (stereo not drawn) [Ex. 7, 3-amino-4-[4-<4-(1-piperidinomethyl)pyridyl-2-oxy>-cis-2-butenylamino]-1,2,5-thiadiazole-1-oxide]	661 nM	90%	0.44 mg/kg	15.9	
CNc1n[s+]([O-])nc1NC/C=C\COc1cc(CN2CCCCC2)ccn1 (stereo not drawn) [Ex. 8, 3-methylamino-4-[4-<4-(1-piperidinomethyl)pyridyl-2-oxy>-cis-2-butenylamino]-1,2,5-thiadiazole-1-oxide]	490 nM	85%			
CNc1n[s+]([O-])nc1NC/C=C/COc1cc(CN2CCCCC2)ccn1 (stereo not drawn) [Ex. 10, 3-methylamino-4-[4-<4-(1-piperidinomethyl)pyridyl-2-oxy>-trans-2-butenylamino]-1,2,5-thiadiazole-1-oxide]	182 nM	52%			
NC1=NS(=O)(=O)N=C1NC/C=C\COc1cc(CN2CCCCC2)ccn1 [Ex. 13, 3-amino-4-[4-<4-(1-piperidinomethyl)pyridyl-2-oxy>-cis-2-butenylamino]-1,2,5-thiadiazole-1,1-dioxide]	708 nM	84%	0.5 mg/kg	14.0	
Nc1nsnc1NC/C=C\COc1cc(CN2CCCCC2)ccn1 [Ex. 15, 3-amino-4-[4-<4-(1-piperidinomethyl)pyridyl-2-oxy>-cis-2-butenylamino]-1,2,5-thiadiazole]	35.5 nM	61%	0.38 mg/kg	18.4	antagonistic actions against Histamine H2 -receptor (in words) (Histamine H2 -Receptor; isolated right atria of guinea pigs): strong
Nc1nnc(NC/C=C\COc2cc(CN3CCCCC3)ccn2)s1 [Ex. 17, 2-amino-5-[4-<4-(1-piperidinomethyl)pyridyl-2-oxy>-cis-2-butenylamino]-1,3,4-thiadiazole]	204 nM	69%	0.14 mg/kg	50.0	
CN(C)Cc1c[nH]c(NC/C=C\COc2cc(CN3CCCCC3)ccn2)nc1=O [Ex. 21, 5-dimethylaminomethyl-2-[4-<4-(1-piperidinomethyl)pyridyl-2-oxy>-cis-2-butenylamino]-1H-pyrimidin-4-one]	316 nM	65%			
CN(C)Cc1cccc(Cc2c[nH]c(NC/C=C\COc3cc(CN4CCCCC4)ccn3)nc2=O)c1 [Ex. 23, 5-(3-dimethylaminomethylbenzyl)-2-[4-<4-(1-piperidinomethyl)pyridyl-2-oxy>-cis-2-butenylamino]-1H-pyrimidin-4-one]	1550 nM	36%			
O=c1nc(NC/C=C\COc2cc(CN3CCCCC3)ccn2)[nH]nc1Cc1cccnc1 [Ex. 25, 3-[4-<4-(1-piperidinomethyl)pyridyl-2-oxy>-cis-2-butenylamino]-6-(3-pyridylmethyl)-1,2,4-triazin-5-one]	170 nM	55%	0.14 mg/kg	50.0	
Nc1cc(NC/C=C\COc2cc(CN3CCCCC3)ccn2)[nH]c(=O)n1 [Ex. 26, 4-amino-6-[4-<4-(1-piperidinomethyl)pyridyl-2-oxy>-cis-2-butenylamino]-1H-pyrimidin-2-one]	263 nM	83%			
CNc1c(NC/C=C\COc2cccc(CN3CCCCC3)n2)c(=O)c1=O [Ex. 33, 1-methylamino-2-[4-<6-(1-piperidinomethyl)pyridyl-2-oxy>-cis-2-butenylamino]-1-cyclobuten-3,4-dione]	661 nM	34%			
Nc1n[s+]([O-])nc1NC/C=C\COc1cccc(CN2CCCCC2)n1 (stereo not drawn) [Ex. 34, 3-amino-4-[4-<6-(1-piperidinomethyl)pyridyl-2-oxy>-cis-2-butenylamino]-1,2,5-thiadiazole-1-oxide]	933 nM	81%			
CNc1n[s+]([O-])nc1NC/C=C\COc1cccc(CN2CCCCC2)n1 (stereo not drawn) [Ex. 35, 3-methylamino-4-[4-<6-(1-piperidinomethyl)pyridyl-2-oxy>-cis-2-butenylamino]-1,2,5-thiadiazole-1-oxide]	1100 nM	74%			
Nc1nnc(NC/C=C\COc2cccc(CN3CCCCC3)n2)s1 [Ex. 39, 2-amino-5-[4-<6-(1-piperidinomethyl)pyridyl-2-oxy>-cis-2-butenylamino]-1,3,4-thiadiazole]	1550 nM	36%			
Cn1nc(N)nc1NC/C=C\COc1cccc(CN2CCCCC2)n1 [Ex. 41, 3-amino-1-methyl-5-[4-<6-(1-piperidinomethyl)pyridyl-2-oxy>-cis-2-butenylamino]-1H-1,2,4-triazole]	1910 nM	32%			
CN(C)Cc1c[nH]c(NC/C=C\COc2cccc(CN3CCCCC3)n2)nc1=O [Ex. 43, 5-dimethylaminomethyl-2-[4-<6-(1-piperidinomethyl)pyridyl-2-oxy>-cis-2-butenylamino]-1H-pyrimidin-4-one]	617 nM	44%			
Nc1cc(NC/C=C\COc2cccc(CN3CCCCC3)n2)[nH]c(=O)n1 [Ex. 47, 4-amino-6-[4-<6-(1-piperidinomethyl)pyridyl-2-oxy>-cis-2-butenylamino]-1H-pyrimidin-2-one]		40%			
Nc1n[nH]c(=O)nc1NC/C=C\COc1cccc(CN2CCCCC2)n1 [Ex. 49, 6-amino-5-[4-<6-(1-piperidinomethyl)pyridyl-2-oxy<-cis-2-butenylamino]-1,2,4-triazin-3-one]	1700 nM	45%			
Nc1n[nH]c(=O)nc1NC/C=C/COc1cc(CN2CCCCC2)ccn1 [compound 30, 6-amino-5-[4-<4-(1-piperidinomethyl)pyridyl-2-oxy>trans-2-butenylamino]-1,2,4-triazin-3-one]			0.26 mg/kg	26.9	
CN(C)Cc1ccnc(OC/C=C\CNc2nc(=O)[nH]nc2N)c1 [compound 31, 6-amino-5-<4-(4-dimethylaminomethylpyridyl-2-oxy)-cis-2-butenylamino>-1,2,4-triazin-3-one]			0.28 mg/kg	25.0	

— patent US4710498A, “Pyridyloxy derivatives” (Ikeda Mohando Co., Ltd., priority 1984, dated 1987)
